Laboratory results taken from ChEMBL document CHEMBL1201862, “PubChem BioAssay data set” (2004).
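Growth conditions: 96-well plates. Treatment: test compound, 48 hours, 5 concentrations. Analysis: linear interpolation between bracketing concentrations; unreached endpoints set to highest concentration. GI50 = concentration required for 50% inhibition of growth.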 Activity calls are given as the source filed them. Cut-off read from the data, not from the text of the source: active = GI50 up to about 1.1 µM and inactive = higher.

Key:
Test in all cases: DTP human tumour cell line panel, 48 h
OVCAR-4 = system: OVCAR-4
PC-3 = system: PC-3
HOP-92 = system: HOP-92
SR = system: SR
MCF7 = system: MCF7
K562 = system: K562
SF-539 = system: SF-539
CCRF-CEM = system: CCRF-CEM
UO-31 = system: UO-31
SNB-19 = system: SNB-19
IGROV-1 = system: IGROV-1
NCI-H23 = system: NCI-H23
OVCAR-5 = system: OVCAR-5
A498 = system: A498
M14 = system: M14
UACC-62 = system: UACC-62
LOX IMVI = system: LOX IMVI
UACC-257 = system: UACC-257
SK-MEL-5 = system: SK-MEL-5
SK-OV-3 = system: SK-OV-3
U-251 = system: U-251
TK-10 = system: TK-10
SF-268 = system: SF-268
HOP-62 = system: HOP-62
SK-MEL-28 = system: SK-MEL-28
SK-MEL-2 = system: SK-MEL-2
SN12C = system: SN12C
OVCAR-3 = system: OVCAR-3
HCT-15 = system: HCT-15
HCC 2998 = system: HCC 2998
NCI-H460 = system: NCI-H460
ACHN = system: ACHN
MDA-MB-435 = system: MDA-MB-435
HCT-116 = system: HCT-116
DU-145 = system: DU-145
MDA-MB-231 = system: MDA-MB-231
MDA-N = system: MDA-N
COLO 205 = system: COLO 205
RPMI-8226 = system: RPMI-8226
BT-549 = system: BT-549
HL-60 = system: HL-60
A549 = system: A549
HT-29 = system: HT-29
Malme-3M = system: Malme-3M
KM12 = system: KM12
NCI/ADR-RES = system: NCI/ADR-RES
MOLT-4 = system: MOLT-4
NCI-H226 = system: NCI-H226
SW-620 = system: SW-620
EKVX = system: EKVX

## COc1cc(C2=C(C#N)C(N)OC3=C2COc2ccccc23)cc(OC)c1OC (stereo not given)
OVCAR-4
  GI50: 5.22 µM (inactive)
PC-3
  GI50: 16.6 µM (inactive)
HOP-92
  GI50: 40.8 µM (inactive)
SR
  GI50: 19.5 µM (inactive)
MCF7
  GI50: > 100 µM (inactive)
K562
  GI50: 78 µM (inactive)
SF-539
  GI50: 20.4 µM (inactive)
CCRF-CEM
  GI50: 938 nM (active)
UO-31
  GI50: 4.15 µM (inactive)
SNB-19
  GI50: 9.29 µM (inactive)
IGROV-1
  GI50: 22.9 µM (inactive)
NCI-H23
  GI50: 33.9 µM (inactive)
OVCAR-5
  GI50: > 100 µM (inactive)
A498
  GI50: 24.5 µM (inactive)
M14
  GI50: 42 µM (inactive)
UACC-62
  GI50: 50.4 µM (inactive)
LOX IMVI
  GI50: 35.5 µM (inactive)
UACC-257
  GI50: 31.3 µM (inactive)
SK-MEL-5
  GI50: 25.2 µM (inactive)
SK-OV-3
  GI50: 16.4 µM (inactive)
U-251
  GI50: 14.7 µM (inactive)
TK-10
  GI50: 13.7 µM (inactive)
SF-268
  GI50: 14.9 µM (inactive)
HOP-62
  GI50: 6.62 µM (inactive)
SK-MEL-28
  GI50: 24.8 µM (inactive)
SK-MEL-2
  GI50: 28.5 µM (inactive)
SN12C
  GI50: 16.1 µM (inactive)
OVCAR-3
  GI50: 14.2 µM (inactive)
HCT-15
  GI50: > 100 µM
HCC 2998
  GI50: 14.4 µM (inactive)
NCI-H460
  GI50: 19.4 µM (inactive)
ACHN
  GI50: 12.6 µM (inactive)
MDA-MB-435
  GI50: 34.3 µM (inactive)
HCT-116
  GI50: 16.7 µM (inactive)
DU-145
  GI50: 10.6 µM (inactive)
MDA-MB-231
  GI50: 15.2 µM (inactive)
MDA-N
  GI50: > 100 µM (inactive)
COLO 205
  GI50: > 100 µM (inactive)
RPMI-8226
  GI50: 46.6 µM (inactive)
BT-549
  GI50: 42.8 µM (inactive)
HL-60
  GI50: > 100 µM (inactive)
A549
  GI50: 17.5 µM (inactive)
HT-29
  GI50: 77.1 µM (inactive)
Malme-3M
  GI50: 11.9 µM (inactive)
KM12
  GI50: 81.7 µM (inactive)
NCI/ADR-RES
  GI50: 25.2 µM (inactive)
MOLT-4
  GI50: 3.16 µM (inactive)
NCI-H226
  GI50: 30.4 µM (inactive)
SW-620
  GI50: 50.1 µM (inactive)
EKVX
  GI50: 16.2 µM (inactive)
